The text below walks through data of patent publication USRE48711E1, “Apoptosis signal-regulating kinase inhibitors” (Gilead Sciences, Inc., priority 2009, dated 2021).

As usually defined, the IC50 is the concentration needed to halve the response being measured.

Sequence of ASK1 (Apoptosis Signal-Regulating Kinase 1) (Q99683 649-946): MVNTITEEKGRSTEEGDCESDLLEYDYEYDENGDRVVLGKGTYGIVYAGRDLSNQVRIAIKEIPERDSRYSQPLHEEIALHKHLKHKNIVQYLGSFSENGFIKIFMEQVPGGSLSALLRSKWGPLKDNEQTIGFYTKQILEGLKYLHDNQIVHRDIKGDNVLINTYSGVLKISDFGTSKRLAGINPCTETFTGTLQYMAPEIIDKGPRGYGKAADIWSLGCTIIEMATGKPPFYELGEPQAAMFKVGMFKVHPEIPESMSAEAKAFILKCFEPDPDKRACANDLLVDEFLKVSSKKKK

The test has as its target ASK1 (Apoptosis Signal-Regulating Kinase 1) (Homo sapiens (Human), UniProt Q99683). As to the kind of experiment: ASK1 (Apoptosis Signal-Regulating Kinase 1) TR-FRET Kinase Assay (Biochemical IC50). To be noted: TR-FRET, biotin-MBP substrate, 20 min pre-incubation, ATP added as 300 μM solution. A general note: TR-FRET usually uses a lanthanide donor and a delayed reading to cut background.
On to `CC(C)(O)c1ccc(-c2ccnc(C(=O)Nc3cccc(-c4nncn4C4CC4)n3)c2)cn1` [Example 166, N-(6-(4-cyclopropyl-4H-1,2,4-triazol-3-yl)pyridin-2-yl)-6-(2-hydroxypropan-2-yl)-3,4′-bipyridine-2′-carboxamide], for which the IC50 turned out to be 5 nM. `O=C(Nc1cccc(-c2nncn2C2CC2)c1)c1cc(-n2cnc(C(O)C(F)(F)F)c2)ccn1` (stereo not shown) [Example 206, N-(3-(4-cyclopropyl-4H-1,2,4-triazol-3-yl)phenyl)-4-(4-(2,2,2-trifluoro-1-hydroxyethyl)-1H-imidazol-1-yl)picolinamide] yielded an IC50 of 9 nM. Compound `O=C(Nc1cccc(-c2nncn2C2CC2)n1)c1cccc(-c2ccc(C3CC3)nc2)n1` [Example 258, 6′-cyclopropyl-N-(6-(4-cyclopropyl-4H-1,2,4-triazol-3-yl)pyridin-2-yl)-2,3′-bipyridine-6-carboxamide] had a 50% inhibitory concentration (IC50) of 852 nM. Compared with the last compound, the IC50 is about 95-fold higher.

The compound `O=C(Nc1cccc(-c2cncn2C2CC2)c1)c1cc(-c2ccc(C3CC3)nc2)ccn1` [Example 107, 6-cyclopropyl-N-(3-(1-cyclopropyl-1H-imidazol-5-yl)phenyl)-3,4′-bipyridine-2′-carboxamide] had an IC50 of 31 nM. For the compound `O=C(Nc1cccc(-c2nncn2C2CC2)c1)c1cc(-c2cccnc2)cc(C(F)(F)F)n1` [Example 124, N-(3-(4-cyclopropyl-4H-1,2,4-triazol-3-yl)phenyl)-6′-(trifluoromethyl)-3,4′-bipyridine-2′-carboxamide], the IC50 was determined as 422 nM. In the case of `CC(C)(C)Cc1ccc(-c2ccnc(C(=O)Nc3cccc(-c4nncn4C4CC4)c3)c2)cn1` [Example 115, N-(3-(4-cyclopropyl-4H-1,2,4-triazol-3-yl)phenyl)-6-neopentyl-3,4′-bipyridine-2′-carboxamide], inhibition was half-maximal at 15 nM (IC50). Against the preceding compound, the IC50 is about 28-fold lower.

Regarding `O=C(Nc1cccc(-c2nncn2C2CC2c2ccccc2)c1)c1cc(-c2ccc(C3CC3)nc2)ccn1` (stereo not shown) [Example 267, 6-cyclopropyl-N-(3-(4-(2-phenylcyclopropyl)-4H-1,2,4-triazol-3-yl)phenyl)-3,4′-bipyridine-2′-carboxamide], the midpoint of inhibition, the IC50, lay at 425 nM.

Compound `O=C(Nc1ccnc(-c2nncn2C2CC2)c1)c1cc(-c2cnc3ccccc3c2)ccn1` [Example 153, N-(2-(4-cyclopropyl-4H-1,2,4-triazol-3-yl)pyridin-4-yl)-4-(quinolin-3-yl)picolinamide] returned an IC50 of 409 nM. Compound `O=C(Nc1cccc(-c2cncn2C2CC2)n1)c1cc(-c2cnc3ccccc3c2)ccn1` [Example 126, N-(6-(1-cyclopropyl-1H-imidazol-5-yl)pyridin-2-yl)-4-(quinolin-3-yl)picolinamide] registered an IC50 of 1040 nM. In the case of `O=C(Nc1cccc(-c2nncn2C2CC2)c1)c1cc(-c2ccc(C3CC3)nc2)ncn1` [Example 144, N-(3-(4-cyclopropyl-4H-1,2,4-triazol-3-yl)phenyl)-6-(6-cyclopropylpyridin-3-yl)pyrimidine-4-carboxamide], the IC50 came to 14 nM. This IC50 is about 74-fold lower than that of the compound before. Consider `CC(C)(O)c1ccc(-c2cccc(C(=O)Nc3cccc(-c4nncn4C4CC4)n3)c2)cn1` [Example 204, N-(6-(4-cyclopropyl-4H-1,2,4-triazol-3-yl)pyridin-2-yl)-3-(6-(2-hydroxypropan-2-yl)pyridin-3-yl)benzamide], for which the IC50 was 17 nM. As for `CCc1cncc(-c2ccnc(C(=O)Nc3cccc(-c4nncn4C4CC4)c3)c2)c1` [Example 146, N-(3-(4-cyclopropyl-4H-1,2,4-triazol-3-yl)phenyl)-5-ethyl-3,4′-bipyridine-2′-carboxamide], it took 8 nM to reach half-maximal inhibition (IC50). Compound `O=C(Nc1cccc(-c2cncn2C2CC2)n1)c1cc(-c2ccc(C3CC3)nc2)ccn1` [Example 127, 6-cyclopropyl-N-(6-(1-cyclopropyl-1H-imidazol-5-yl)pyridin-2-yl)-3,4′-bipyridine-2′-carboxamide] registered an IC50 of 211 nM. The same measure for `COC(c1cn(-c2cccc(C(=O)Nc3cccc(-c4nncn4C4CC4)n3)c2)cn1)C(F)(F)F` (stereo not shown) [Example 235, N-(6-(4-cyclopropyl-4H-1,2,4-triazol-3-yl)pyridin-2-yl)-3-(4-(2,2,2-trifluoro-1-methoxyethyl)-1H-imidazol-1-yl)benzamide]: 15 nM. In the case of `O=C(Nc1cccc(-c2nncn2C2CC2)c1)c1cc(-c2ccc(C(F)(F)F)nc2)ccn1` [Example 52, N-(3-(4-cyclopropyl-4H-1,2,4-triazol-3-yl)phenyl)-6-(trifluoromethyl)-3,4′-bipyridine-2′-carboxamide], the IC50 turned out to be 12 nM. The compound `O=C(Nc1cccc(-c2nncn2C2CC2)c1)c1cc(-c2cncc(C3CC3)c2)ccn1` [Example 156, 5-cyclopropyl-N-(3-(4-cyclopropyl-4H-1,2,4-triazol-3-yl)phenyl)-3,4′-bipyridine-2′-carboxamide] showed an IC50 of 11 nM.

With `Cc1ncn(-c2cccc(C(=O)Nc3cccc(-c4nncn4[C@@H](C)C(F)(F)F)n3)c2)c1C` [Example 216, (S)-3-(4,5-dimethyl-1H-imidazol-1-yl)-N-(6-(4-(1,1,1-trifluoropropan-2-yl)-4H-1,2,4-triazol-3-yl)pyridin-2-yl)benzamide], inhibition was half-maximal at 8 nM (IC50). Compound `Cc1ncn(-c2ccnc(C(=O)Nc3cccc(-c4nncn4C4CC4)n3)c2)c1C` [Example 160, N-(6-(4-cyclopropyl-4H-1,2,4-triazol-3-yl)pyridin-2-yl)-4-(4,5-dimethyl-1H-imidazol-1-yl)picolinamide] registered an IC50 of 4 nM. This IC50 lies about 2-fold lower than the previous one.

Consider `O=C(Nc1cccc(-c2nncn2C2CC2)n1)c1ccnc(-c2ccc(C3CC3)nc2)c1` [Example 260, 6′-cyclopropyl-N-(6-(4-cyclopropyl-4H-1,2,4-triazol-3-yl)pyridin-2-yl)-2,3′-bipyridine-4-carboxamide], for which the midpoint of inhibition, the IC50, lay at 30 nM. With `O=C(Nc1cccc(-c2nncn2C2CC2)c1)c1cc(-c2ccc(OC3CC3)nc2)ccn1` [Example 104, 6-cyclopropoxy-N-(3-(4-cyclopropyl-4H-1,2,4-triazol-3-yl)phenyl)-3,4′-bipyridine-2′-carboxamide] the figure was 12 nM. The compound `C[C@@H](n1cnnc1-c1cccc(NC(=O)c2cc(-c3cccnc3)ccn2)c1)C(F)(F)F` [Example 62, (R)-N-(3-(4-(1,1,1-trifluoropropan-2-yl)-4H-1,2,4-triazol-3-yl)phenyl)-3,4′-bipyridine-2′-carboxamide] had an IC50 of 1240 nM. The compound `CS(=O)(=O)c1ccccc1-c1ccnc(C(=O)Nc2cccc(-c3nncn3C3CC3)c2)c1` [Example 78, N-(3-(4-cyclopropyl-4H-1,2,4-triazol-3-yl)phenyl)-4-(2-(methylsulfonyl)phenyl)picolinamide] returned an IC50 of 572 nM. This IC50 lies about 2.2-fold lower than the previous one.

Compound `O=C(Nc1cccc(-c2nncn2C2CC2)n1)c1cc(-n2cnc(C3CC3)n2)ccn1` [Example 201, 4-(3-cyclopropyl-1H-1,2,4-triazol-1-yl)-N-(6-(4-cyclopropyl-4H-1,2,4-triazol-3-yl)pyridin-2-yl)picolinamide] displayed an IC50 of 14 nM. This IC50 is about 41-fold lower than that of the compound before. With `O=C(Nc1cccc(-c2nncn2C2CC2)n1)c1cc(-n2cnc3c2CCNC3C(F)(F)F)ccn1` (stereo not shown) [Example 195, N-(6-(4-cyclopropyl-4H-1,2,4-triazol-3-yl)pyridin-2-yl)-4-(4-(trifluoromethyl)-4,5,6,7-tetrahydro-1H-imidazo[4,5-c]pyridin-1-yl)picolinamide], 8 nM corresponded to half-maximal inhibition (IC50). With `O=C(Nc1cccc(-c2nncn2C2CC2)c1)c1cc(-c2cnc3c(c2)CN(CC(F)(F)F)CC3)ccn1` [Example 161, N-(3-(4-cyclopropyl-4H-1,2,4-triazol-3-yl)phenyl)-4-(6-(2,2,2-trifluoroethyl)-5,6,7,8-tetrahydro-1,6-naphthyridin-3-yl)picolinamide] the figure was 9 nM; with `O=C(Nc1cccc(-c2nncn2C2CC2)n1)c1cccc(-c2ccc(C3CC3)nc2)c1` [Example 151, N-(6-(4-cyclopropyl-4H-1,2,4-triazol-3-yl)pyridin-2-yl)-3-(6-cyclopropylpyridin-3-yl)benzamide], 8 nM.

In turn, `O=C(Nc1cccc(-c2nncn2C2CC2)c1)c1cc(-c2ccccc2)ccn1` [Example 14, N-(3-(4-cyclopropyl-4H-1,2,4-triazol-3-yl)phenyl)-4-phenylpicolinamide] came in with an IC50 of 279 nM. The same measure for `O=C(Nc1ccc(F)c(-c2nncn2C2CC2)c1)c1cc(-c2ccc(C3CC3)nc2)ccn1` [Example 147, 6-cyclopropyl-N-(3-(4-cyclopropyl-4H-1,2,4-triazol-3-yl)-4-fluorophenyl)-3,4′-bipyridine-2′-carboxamide]: 400 nM; for `CS(=O)(=O)c1ccc(-c2ccnc(C(=O)Nc3cccc(-c4nncn4C4CC4)c3)c2)cc1` [Example 79, N-(3-(4-cyclopropyl-4H-1,2,4-triazol-3-yl)phenyl)-4-(4-(methylsulfonyl)phenyl)picolinamide]: 6 nM. As for `O=C(Nc1cccc(-c2nncn2C2CC2)n1)c1ccc(Cl)c(-n2cnc(C3CC3)c2)c1` [Example 227, 4-chloro-3-(4-cyclopropyl-1H-imidazol-1-yl)-N-(6-(4-cyclopropyl-4H-1,2,4-triazol-3-yl)pyridin-2-yl)benzamide], the half-inhibitory concentration (IC50) is 8 nM. With `O=C(Nc1cccc(-c2nncn2C2CC2)n1)c1cccc(-n2cnc3c2CCCC3)c1` [Example 212, N-(6-(4-cyclopropyl-4H-1,2,4-triazol-3-yl)pyridin-2-yl)-3-(4,5,6,7-tetrahydro-1H-benzo[d]imidazol-1-yl)benzamide], the IC50 is 9 nM. The IC50 values of the last two compounds are within 1.5-fold of each other. The same measure for `COc1ccc(-c2ccnc(C(=O)Nc3cccc(-c4nncn4C4CC4)c3)c2)cn1` [Example 21, N-(3-(4-cyclopropyl-4H-1,2,4-triazol-3-yl)phenyl)-6-methoxy-3,4′-bipyridine-2′-carboxamide]: 12 nM; for `CN1CCN(c2ccnc(C(=O)Nc3cccc(-c4nncn4C)c3)c2)CC1` [Example 29, N-(3-(4-methyl-4H-1,2,4-triazol-3-yl)phenyl)-4-(4-methylpiperazin-1-yl)picolinamide]: 443 nM. Turning to `C[C@H](n1cnnc1-c1cccc(NC(=O)c2cc(-n3cnc(C4CC4)c3)ccn2)c1)C(F)(F)F` [Example 189, (S)-4-(4-cyclopropyl-1H-imidazol-1-yl)-N-(3-(4-(1,1,1-trifluoropropan-2-yl)-4H-1,2,4-triazol-3-yl)phenyl)picolinamide], the IC50 was determined as 9 nM.
